As a reminder, the IC50 is the concentration at which inhibition is half-maximal. The low end stands for greater potency in that assay, the high end for weaker potency in that assay.

Here are results for ten molecules from patent US20230382889A1 (Volastra Therapeutics, Inc., priority 2022, published 2023).

Sequence of hKIF18A (1-374) (Q8NI77 1-374): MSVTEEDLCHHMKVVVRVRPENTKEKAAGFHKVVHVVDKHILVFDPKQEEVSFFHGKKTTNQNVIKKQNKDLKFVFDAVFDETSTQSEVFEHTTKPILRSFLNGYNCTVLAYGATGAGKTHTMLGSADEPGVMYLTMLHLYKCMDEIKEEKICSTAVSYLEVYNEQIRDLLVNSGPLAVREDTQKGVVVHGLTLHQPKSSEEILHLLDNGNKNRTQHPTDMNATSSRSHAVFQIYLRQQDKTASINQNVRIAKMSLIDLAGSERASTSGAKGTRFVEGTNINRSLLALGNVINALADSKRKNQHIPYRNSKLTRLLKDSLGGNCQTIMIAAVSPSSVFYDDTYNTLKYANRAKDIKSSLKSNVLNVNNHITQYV

This experiment addresses hKIF18A (1-374) (Homo sapiens (Human), UniProt Q8NI77). Put plainly: Inhibition of KIF18A microtubule-dependent ATPase activity (ADP-Glo). As to conditions: 4 nM hKIF18A (1-374). It is filed as biochemical. The essentials: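 Reaction was started with pre-formed microtubules and ATP (0.2 mg/mL and 2.0 mM in the added mix) and run 60 min at 28 °C. ADP was read by ADP-Glo luminescence, and IC50 came from a four-parameter fit of % inhibition.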
Take `O=S(=O)(CCO)Nc1ccc(-n2cc(-c3ccc(F)c(N4CCCCO4)n3)nn2)c(N2CCC3(CC2)CC3)c1` [Compound 154, N-(4-(4-(5-fluoro-6-(1,2-oxazinan-2-yl)pyridin-2-yl)-1H-1,2,3-triazol-1-yl)-3-(6-azaspiro[2.5]octan-6-yl)phenyl)-2-hydroxyethane-1-sulfonamide]: inhibition was half-maximal at 7.1 nM (IC50). This lies in the single-digit nanomolar range. `O=S(=O)(Nc1ccc(-n2cc(-c3ccc(F)c(N4CCC(F)(F)CC4)n3)nn2)c(N2CCCCC2)c1)C1(CO)CC1` [Compound 157, N-(4-(4-(6-(4,4-difluoropiperidin-1-yl)-5-fluoropyridin-2-yl)-1H-1,2,3-triazol-1-yl)-3-(piperidin-1-yl)phenyl)-1-(hydroxymethyl)cyclopropane-1-sulfonamide] displayed an IC50 of 21 nM. `O=C(O)c1cc(-c2cn(-c3ccc(NS(=O)(=O)CCO)cc3N3CCC4(CC3)CC4)nn2)nc(N2CCC(F)(F)CC2)n1` [Compound 158, 2-(4,4-difluoropiperidin-1-yl)-6-(1-(4-((2-hydroxyethyl)sulfonamido)-2-(6-azaspiro[2.5]octan-6-yl)phenyl)-1H-1,2,3-triazol-4-yl)pyrimidine-4-carboxylic acid] yielded an IC50 of 3.8 nM.

For `O=S(=O)(CCO)Nc1ccc(-n2cc(-c3nc(C4=CCC(F)(F)CC4)ccc3F)nn2)c(N2CCC3(CC2)CC3)c1` [Compound 159, N-(4-(4-(6-(4,4-difluorocyclohex-1-en-1-yl)-3-fluoropyridin-2-yl)-1H-1,2,3-triazol-1-yl)-3-(6-azaspiro[2.5]octan-6-yl)phenyl)-2-hydroxyethane-1-sulfonamide], half-maximal inhibition (IC50) was put at 14 nM. `O=S(=O)(CCO)Nc1ccc(-n2cc(-c3cc(CO)nc(N4CCC(F)(F)CC4)n3)nn2)c(N2CCC3(CC2)CC3)c1` [Compound 160, N-(4-(4-(2-(4,4-difluoropiperidin-1-yl)-6-(hydroxymethyl)pyrimidin-4-yl)-1H-1,2,3-triazol-1-yl)-3-(6-azaspiro[2.5]octan-6-yl)phenyl)-2-hydroxyethane-1-sulfonamide] registered an IC50 of 4.4 nM.

Take `Cc1ncc(-c2cn(-c3ccc(NS(=O)(=O)CCO)cc3N3CCC4(CC3)CC4)nn2)nc1C1=CCCC1` [Compound 161, N-(4-(4-(6-(cyclopent-1-en-1-yl)-5-methylpyrazin-2-yl)-1H-1,2,3-triazol-1-yl)-3-(6-azaspiro[2.5]octan-6-yl)phenyl)-2-hydroxyethane-1-sulfonamide]: the IC50 came to 63 nM. For `O=S(=O)(CCO)Nc1ccc(-n2cc(-c3ccc(F)c(C4=CCC(F)(F)CC4)n3)nn2)c(N2CCC3(CC2)CC3)c1` [Compound 162, N-(4-(4-(6-(4,4-difluorocyclohex-1-en-1-yl)-5-fluoropyridin-2-yl)-1H-1,2,3-triazol-1-yl)-3-(6-azaspiro[2.5]octan-6-yl)phenyl)-2-hydroxyethane-1-sulfonamide] the value was 20 nM; for `CS(=O)(=O)Nc1ccc(-c2nc(-c3cccc(N4CCOCC4)n3)no2)c(N2CCC3(CC2)CC3)c1` [Compound 163, N-(4-(3-(6-morpholinopyridin-2-yl)-1,2,4-oxadiazol-5-yl)-3-(6-azaspiro[2.5]octan-6-yl)phenyl)methanesulfonamide], 3600 nM. For `CS(=O)(=O)Nc1ccc(-c2noc(-c3cccc(N4CCOCC4)n3)n2)c(N2CCC3(CC2)CC3)c1` [Compound 164, N-(4-(5-(6-morpholinopyridin-2-yl)-1,2,4-oxadiazol-3-yl)-3-(6-azaspiro[2.5]octan-6-yl)phenyl)methanesulfonamide] the value was more than 30000 nM; for `CS(=O)(=O)Nc1ccc(-n2cc(-c3cccc(N4CCC(F)(F)CC4)n3)nn2)c(N2CC3CC3C2)c1` (stereo not shown) [Compound 165, N-(3-(3-azabicyclo[3.1.0]hexan-3-yl)-4-(4-(6-(4,4-difluoropiperidin-1-yl)pyridin-2-yl)-1H-1,2,3-triazol-1-yl)phenyl)methanesulfonamide], 283 nM.
